Source: patent publication US20240304840A1 (priority 2023, published 2024)

Conditions: 1 mAh H-cell, 1 M sodium chloride, Selemion AMVN, about 20 days
From the text: An H-cell can be used for the coulombic efficiency tests. […] The electrolyte can be dissolved in about 1 M sodium chloride for electrochemical stability testing. The moles of anolyte and catholyte molecules present can be controlled to achieve the desired capacity of 1 mAh. […] Selemion™ anion exchange membrane (AMVN) can be used for the H-cells.

C[N+](C)(C)CCC[N+](C)(C)CCCN1C(=O)c2ccc3c4ccc5c6c(ccc(c7ccc(c2c37)C1=O)c64)C(=O)N(CCC[N+](C)(C)CCC[N+](C)(C)C)C5=O [PDI-tetraammonium-Cl4]
crossover in H-cell: almost no crossover
